# Measured values from patent publication US10112899B2 (ViiV HEALTHCARE UK LIMITED, priority 2014, dated 2018).
# Test system: HIV in the HTLV-1 transformed cell line MT-4
# Experiment: organism not typed
# Format: cell-based
# Settings: MT4, 96 h, MT-4 cells; luciferase/cell titer glo readout after 96 hours; 10 point dose response
row,SMILES,IC50
1,"COc1cncc(C(=O)N2Cc3c(C)c(-c4ccc(C)cc4)c([C@H](OC(C)(C)C)C(=O)O)c(C)c3C2)c1 [Example 235, (S)-2-(tert-butoxy)-2-(2-(5-methoxynicotinoyl)-4,7-dimethyl-6-(p-tolyl)isoindolin-5-yl)acetic acid]",5 nM
2,"Cc1ccc(-c2c(C)c3c(c(C)c2[C@H](OC(C)(C)C)C(=O)O)CN(S(=O)(=O)N2CCC(F)(F)C2)C3)cc1 [Example 289, (S)-2-(tert-butoxy)-2-(2-((3,3-difluoropyrrolidin-1-yl)sulfonyl)-4,7-dimethyl-6-(p-tolyl)isoindolin-5-yl)acetic acid]",14 nM
3,"Cc1ccc(-c2c(C)c3c(c(C)c2[C@H](OC(C)(C)C)C(=O)O)CN(C(=O)NC2CCC2)C3)cc1 [Example 70, (2S)-2-(tert-butoxy)-2-[2-(cyclobutylcarbamoy)-4,7-dimethyl-6-(4-methylphenyl)-2,3-dihydro-1H-isoindol-5-yl]acetic acid]",34 nM
4,"COc1cccc(C(=O)N2Cc3c(C)c(-c4ccc(C)cc4)c([C@H](OC(C)(C)C)C(=O)O)c(C)c3C2)c1OC [Example 284, (S)-2-(tert-butoxy)-2-(2-(2,3-dimethoxybenzoyl)-4,7-dimethyl-6-(p-tolyl)isoindolin-5-yl)acetic acid]",48 nM
5,Cc1ccc(-c2c(C)c3c(c(C)c2[C@H](OC(C)(C)C)C(=O)O)CN(C(=O)C(=O)N2CCCCC2)C3)cc1 [Example 129],14 nM
